Experimental data published in ChEMBL document CHEMBL5241115, “Postmodification of voxelotor (GBT 440) via [Rh]-catalyzed cross dehydrogenative coupling with olefins” (2022).

Experiment: Induction of oxygen binding efficiency of haemoglobin from human sickled red blood cells at 100 uM measured every 10 mins for 180 mins by spectral scan analysis relative to control
Assay type: functional, Erythrocyte
Conditions: 3 h

Compound | Activity [%]
CC(C)n1nccc1-c1ncccc1COc1cccc(O)c1C=O [VOXELOTOR] | 100
Cc1ccc(/C=C/c2cnn(C(C)C)c2-c2ncccc2COc2cccc(O)c2C=O)cc1 | 78.9
COc1ccc(/C=C/c2cnn(C(C)C)c2-c2ncccc2COc2cccc(O)c2C=O)c(OC)c1 | 81.1
COc1ccc(/C=C/c2cnn(C(C)C)c2-c2ncccc2COc2cccc(O)c2C=O)cc1 | 78.6
CCCCC(=O)/C=C/c1cnn(C(C)C)c1-c1ncccc1COc1cccc(O)c1C=O | 82
